# Assay: Human HepG2 cell viability assay in 384 well format
# Type: toxicity, cell-based
# Parameters: dose 125 nL, time 70.5 hour; cytotoxicity at 70.5 h: concentration not given beside the values
# Details: HepG2 cells, read-out: Inhibition
row,SMILES,cytotoxicity at 70.5 h [%]
1,CCC1(CC)Cc2ccccc2-c2nc(NCCO)[nH]c(=O)c21,-1.26
2,Cc1cc(C)c(S(=O)(=O)Nc2c(C)nc(N3CCCC3)nc2C)cc1C,2.48
3,Cc1nc(N2CCCC2)nc(C)c1NS(=O)(=O)c1ccccc1F,-1.28
4,CC(C)CC(=O)N1CCN(c2cc(N(C)C)cnn2)CC1,-3.64
5,COc1ncc(NS(=O)(=O)c2cccc(C)c2)c(OC)n1,21.8
6,COc1ncc(NS(=O)(=O)c2ccc(OC)c(C)c2)c(OC)n1,7.97
7,Cc1nnsc1C(=O)NCCn1ccc(-c2ccncc2)n1,18.8
8,O=C(NCCn1ccc(-c2ccncc2)n1)c1ccc2c(c1)OCO2,1.76
9,O=S(=O)(NCCn1ccc(-c2ccncc2)n1)C1CC1,0.267
10,CC(C)(C)C(=O)NCCn1ccc(-c2ccccn2)n1,-1.26
11,CS(=O)(=O)NCCn1ccc(-c2cccs2)n1,-6.85
12,Cn1nc(CNS(=O)(=O)Cc2ccccc2F)c2c1CCCC2,-5.77
13,Cc1nnsc1C(=O)NCc1nn(C)c2c1COCC2,-13.8
14,COC(=O)c1ccc(C(=O)NCc2nn(C)c3c2COCC3)cc1,-4.89
15,COCCN1CCC2(CC1)CN(Cc1cccc(C)n1)C(=O)CO2,0.221
16,Cc1cccc(CN2CC3(CCN(C(=O)C4CC4)CC3)OCC2=O)n1,1.74
17,Cc1ccc(N2CCc3sc(C(=O)NCCN4CCCC4)cc32)nn1,-0.377
18,COCCNC(=O)[C@H]1C[C@@H]2CCN(c3ncccn3)C[C@@H]2O1,-4.51
19,Cc1ccnc(OC[C@]23COC[C@H]2CN(C(=O)c2ccnn2C)C3)n1,-8.86
20,CC(C)NC(=O)N1CCCC2(CC(C(=O)Nc3ccccc3)=NO2)C1 (centres undefined),16.9
21,Cn1cc(CN2CCC(F)(F)C3(CCN(c4cccc(F)c4)C3)C2)cn1 (centres undefined),43.6
22,CCOCc1ncn2c1CN(C(=O)Nc1ccccc1CC)CC2,16.8
23,CN1C(Cn2cccn2)C[C@@H]2CN(Cc3nccs3)CC[C@@H]21 (some centres undefined),-5.16
24,CC(C)COCC1CN(Cc2cnn(C)c2)Cc2ncn(C)c21 (centres undefined),-7.87
25,CN(C)CCNC(=O)c1cc(-c2cnc(N(C)C)nc2)cn1CC1CC1,-6.44
26,CCS(=O)(=O)N1C[C@H]2CN(Cc3ccc(OC)cc3)C(=O)[C@H]2C1,-10.9

row,SMILES,cytotoxicity at 70.5 h [%]
1,CCS(=O)(=O)N1C[C@H]2CN(Cc3cccc(C)c3)C(=O)[C@H]2C1,-10.5
2,Cc1ccc(N2CC[C@H]3OCC[C@@]3(C(=O)N3CCCO3)C2)nn1,-4.42
3,CC(C)Nc1ncnc2c1CCN(C(=O)[C@H]1CCCO1)CC2,-6.46
4,Cc1ccc(N2CC[C@H](O)[C@@H]2Cc2cnn(C)c2)nn1,-6.12
5,O=C(NCc1ccccc1)N1CCC2(CC(=O)N(c3ccccc3)C2)C1 (centres undefined),-5.57
6,Cc1cc(C(=O)N2CCc3c(CN(C)C)nn(C)c3C2)[nH]n1,-12.8
7,CN(C)Cc1nn(C)c2c1CN(C(=O)c1cccc(C#N)c1)C2,-11.5
8,O=C(Nc1ccccc1)N1CCC2(CC(=O)N(c3ccsc3)C2)C1 (centres undefined),-10
9,N#Cc1cccc(CN2C[C@@H](NC(=O)C3CC3)[C@H]3OCCC[C@H]32)c1,-12.1
10,O=C(c1ccnnc1)N1CCO[C@H]2[C@H](Oc3cccnc3)CC[C@@H]21,-13.8
11,CC1=N[C@@]2(CC[C@@H]3CN(Cc4ccccc4F)C[C@@H]32)C(=O)N1C,-20
12,COCC1Cn2nnc(-c3cnn(C)c3)c2CN1Cc1ccc(C)o1 (centres undefined),-12.2
13,O=C(c1ccnnc1)N1C[C@@H](OCc2cccnc2)[C@H]2OCCC[C@H]21,27.3
14,O=C(c1ccc[nH]1)N1Cc2nccn2CC(COc2cccnc2)C1 (centres undefined),18.1
15,COc1cc(N2CC[C@@H]3O[C@@H](C(=O)NC(C)C)C[C@@H]32)ncn1,-8.65
16,Cc1ccc(N2CCO[C@H]3CN(C(=O)c4cccc(C)n4)C[C@H]32)nn1,-9.8
17,COCCNC(=O)[C@@H]1C[C@H]2[C@H](CCN2c2cc(OC)ncn2)O1,-10.5
18,O=C(CC1CC1)N1Cc2nccn2CC(COc2cccnc2)C1 (centres undefined),-14.7
19,COCC(=O)N1Cc2nccn2CC(COc2cccnc2)C1 (centres undefined),-14.4
20,NC(=O)c1ccc2c(c1)nc1n2CCN(Cc2ccccc2)C1,-15.9
21,O=C(Cn1cc(I)cn1)Nc1cccnc1,-9.49
22,CNc1nc2c(s1)C(c1cccc(F)c1F)CC(=O)N2 (centres undefined),-11.9
23,O=C(NCc1ccco1)c1nn(C2CCS(=O)(=O)C2)c2c1CCCC2 (centres undefined),-10.4
24,CC(=O)N1CCN(C(=O)c2cc(-n3cnnn3)ccc2Cl)CC1,24.6
25,COc1ccccc1C1SCC(=O)Nc2n[nH]cc21 (centres undefined),3.24
26,COc1ccc(NCc2nc(=O)n(CCC(C)C)[nH]2)cc1,-14.5

row,SMILES,cytotoxicity at 70.5 h [%]
1,CNc1nc2c(s1)C(c1c(Cl)cccc1Cl)CC(=O)N2 (centres undefined),-15.8
2,CC(=O)N1CCC2(CC1)C(=O)N(CC1CC1)c1ccccc12,-11.9
3,O=C1CC2(CCN(S(=O)(=O)c3cccs3)C2)CN1c1ccccc1 (centres undefined),-9.28
4,O=C(c1ccno1)N1CCC2(CC1)C(=O)N(CC1CC1)c1ccccc12,-17.3
5,CCOC1COC2(CCN(Cc3ccc4c(c3)OCO4)CC2)C1 (centres undefined),-9.87
6,O=C(O)c1ccc2ccc(N3CCN(CC4CC4)CC3)n2c1,-9.01
7,CC(C)CN1CCC2(CCN(Cc3ccoc3)CC2)C1=O,-12.7
8,CN1[C@H](Cn2cccn2)C[C@@H]2CN(C(=O)Cc3cccs3)CC[C@@H]21,24.7
9,Cc1occc1C(=O)N1CCc2c(CNS(C)(=O)=O)cncc2C1,-20.9
10,O=C1CC2(CCCNC2)C(=O)N1Cc1ccc(F)cc1 (centres undefined),-10.9
11,Cc1cccc(CN2CC3(CCN(S(=O)(=O)C4CC4)CC3)OCC2=O)n1,-0.285
12,CNC(=O)CN1CC[C@H]2CN(C(=O)c3ccoc3)C[C@H]2C1,-4.77
13,O=C(NCc1ccco1)[C@H]1C[C@@H]2CCN(c3nncs3)C[C@H]2O1,-9.42
14,COCCNC(=O)[C@@H]1C[C@@H]2CCN(c3ncccn3)C[C@H]2O1,24.2
15,COCCn1cc2c(n1)C(CNCc1cccc(OC)c1)OCC2 (centres undefined),20.4
16,COCC1CC2(CCN(C(=O)c3occc3C)CC2)CN1C(C)C (centres undefined),20.9
17,O=C1[C@H]2CN(S(=O)(=O)c3ccccc3)C[C@H]2CN1Cc1cccnc1,-15.6
18,CN(C)c1ncc(-c2cc(C(=O)NCCC#N)n(CC3CC3)c2)cn1,-12.9
19,COCCCNC(=O)c1cc(-c2cnc(N(C)C)nc2)cn1CC1CC1,-6.95
20,c1cncc(CN2C[C@H]3CCC[C@@H](CNc4cnccn4)[C@H]3C2)c1,-4.05
21,O=C1[C@H]2CN(S(=O)(=O)C3CC3)C[C@H]2CN1Cc1cccnc1,-8.9
22,CN(C)C(=O)[C@@H]1CCO[C@@H]2CCN(CCOCc3ccccc3)C[C@H]21,20.6
23,O=C(NCc1cccnc1)N1CCC2(CC(=O)N(c3ccsc3)C2)C1 (centres undefined),-6.34
24,CC1=N[C@@]2(CC[C@@H]3CN(Cc4ccccc4C)C[C@@H]32)C(=O)N1CC1CC1,-9.24
25,O=C(C1CCCO1)N1CCc2ncnc(NC3CCC3)c2CC1 (centres undefined),-15.3
26,N#Cc1cccc(CN2C[C@H](NC(=O)C3CC3)[C@H]3OCCC[C@H]32)c1,-14

row,SMILES,cytotoxicity at 70.5 h [%]
1,CN(C)C(=O)[C@@H]1CC[C@@H]2[C@@H](CCN2Cc2nccs2)O1,-14.7
2,CO[C@H]1CC[C@H]2[C@H]1OCCN2Cc1ccc(F)c(F)c1,36.7
3,CC(C)N1CCC(c2nc3ccc(-c4ccnn4C)cn3n2)CC1,19.8
4,Cn1cc(CN2CC[C@@H]3[C@H]2CCC(=O)N3c2ccccc2)cn1,-8.65
5,Cc1nc(CN2CCC3(CCN(c4cnn(C)c4)C3=O)C2)cs1 (centres undefined),-14.5
6,CC(C)CC(=O)N1C[C@@H]2CCN(c3ncccn3)C[C@@H]2C1,42.7
7,CC(=O)N1[C@H](CN(C)C)C[C@@H]2CN(C(=O)c3cccc(F)c3)CC[C@@H]21,-14.7
8,COCC(=O)NC1CC2(CCN(CCF)CC2)Oc2ccccc21 (centres undefined),-10.9
9,O=C(Cc1cccs1)N1CC[C@H]2[C@@H]1CCC(=O)N2c1cccnc1,2.43
10,CN1CCC2(CC1)C(=O)N(CC1CC1)c1ccccc12,-9.7
11,COCCN1C[C@@H]2CN(Cc3cccc(C)n3)C[C@@H]2C1=O,-13.6
12,Cc1cccc(CN2CCC3(CCN(c4ccccn4)C3)C2=O)c1 (centres undefined),-11.4
13,Cc1cccc(CN2CC3(CCN(Cc4ccoc4)CC3)OCC2=O)n1,17.7
14,Cn1cc(CN2CCC(F)(F)C3(CCN(c4ccccn4)C3)C2)cn1 (centres undefined),-14.4
15,CC(C)N(C)Cc1cnc2n1CCN(Cc1ccsc1)C2,-8.42
16,Cn1cc(CN2CCC(F)(F)C3(CCN(c4cccnc4)C3)C2)cn1 (centres undefined),-9.49
17,Cc1ccc(CN2CCn3c(CN(C)C(C)C)cnc3C2)s1,-6.07
18,CC(C)N(C)Cc1cnc2n1CCN(Cc1ccc(F)cc1)C2,-9.32
19,COCc1cncc2c1CCN(Cc1cccs1)C2,0.63
20,COCCN1CCOCC2(CCCN(Cc3cccc(F)c3)C2)C1 (centres undefined),-5.38
21,Cc1cccc(CN2CCC3(CCN(Cc4ccccn4)C3)C2=O)c1 (centres undefined),27.9
22,CC[C@H]1N(C)CCC[C@]12CCC(=O)N2Cc1ccncc1,10.9
23,Cc1ccc(CN2CC[C@H]3[C@H](CC(Cn4cccn4)N3C)C2)s1 (some centres undefined),15.9
24,CN1[C@H](Cn2cccn2)C[C@@H]2CN(Cc3cccs3)CC[C@@H]21,18.9
25,CN1C(Cn2cccn2)C[C@@H]2CN(Cc3cccnc3)CC[C@@H]21 (some centres undefined),-6.35
26,c1ccc(CN2CCc3c(COCc4ccncc4)cncc3C2)nc1,-4.58
